Numbered stars: 1 amine (or outer) side, 2 acyl side, 3 side chain; on linkers, the order of the positions; unused ones are H or OH. Bridge positions count the residues as written; N and C are the ends. Square brackets hold non-standard residues; d marks the D form. Peptide text beside a SMILES is read from it. X1 = CC[C@H](C)[C@@H](N[*:1])[C@@H](O)CC(=O)O[C@H](C(=O)[C@H](C)C(=O)[*:2])C(C)C; NMeY = CN[C@@H](Cc1ccc(O)cc1)C(=O)O; dNMeL = CN[C@H](CC(C)C)C(=O)O
Experiments:
[1] = target: elongation factor-1α (EF-1α) (Homo sapiens, UniProt P68104); conditions: GEP-dependent manner; cited from earlier work
DNA and RNA viruses = conditions: against DNA and RNA viruses; cited from earlier work
L1210 = type: cell-based; conditions: for L1210, IC90: L1210 cells, cytotoxicity
Nb2 node lymphoma cells = conditions: cited from earlier work
[2] = in vitro; cited from earlier work

elongation factor-1α (EF-1α), sequence (P68104 whole entry): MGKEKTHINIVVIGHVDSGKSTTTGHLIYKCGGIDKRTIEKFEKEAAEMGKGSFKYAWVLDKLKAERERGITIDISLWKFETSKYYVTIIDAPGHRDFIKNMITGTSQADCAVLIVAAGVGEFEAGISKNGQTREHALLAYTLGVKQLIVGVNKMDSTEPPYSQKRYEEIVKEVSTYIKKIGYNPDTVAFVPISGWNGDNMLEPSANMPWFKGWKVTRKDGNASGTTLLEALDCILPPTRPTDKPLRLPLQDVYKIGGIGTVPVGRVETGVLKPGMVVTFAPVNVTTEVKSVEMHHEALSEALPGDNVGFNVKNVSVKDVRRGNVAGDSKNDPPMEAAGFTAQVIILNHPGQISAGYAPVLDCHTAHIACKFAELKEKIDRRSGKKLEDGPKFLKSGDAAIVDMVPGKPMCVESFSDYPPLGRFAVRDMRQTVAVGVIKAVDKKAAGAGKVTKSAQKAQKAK

Molecule	L1210, IC90 (L1210)	further results
CC[C@H](C)[C@H]1NC(=O)[C@@H](NC(=O)[C@@H](CC(C)C)NC)[C@@H](C)OC(=O)[C@H](Cc2ccc(OC)cc2)N(C)C(=O)[C@@H]2CCCN2C(=O)[C@H](CC(C)C)NC(=O)[C@@H](C)C(=O)[C@H](C(C)C)OC(=O)C[C@@H]1O [Didemnin A] (H-[dNMeL]T[X1]LP[NMeY](Me); ester 2-C)	75 ng/mL	binding to EF-1α [1]: binds elongation factor-1α (EF-1α); antiviral activity (DNA and RNA viruses): exhibit antiviral activity
CC[C@H](C)[C@H]1NC(=O)[C@@H](NC(=O)[C@@H](CC(C)C)N(C)C(=O)[C@@H]2CCCN2C(=O)C(C)O)[C@@H](C)OC(=O)[C@H](Cc2ccc(OC)cc2)N(C)C(=O)[C@@H]2CCCN2C(=O)[C@H](CC(C)C)NC(=O)[C@@H](C)C(=O)[C@H](C(C)C)OC(=O)C[C@@H]1O (stereo partly shown) [Didemnin B]	7 ng/mL	antiviral activity (DNA and RNA viruses): exhibit antiviral activity; binding to a site on Nb2 node lymphoma cells (Nb2 node lymphoma cells): binds to a site on Nb2 node lymphoma cells; cytotoxicity relative to didemnin A [2]: approximately twenty times more cytotoxic than didemnin A
L-Alaninyl-didemnin A [Alaninyl DA]	8 ng/mL	–
L-[Alaninyl^9 ] didemnin B [[Ala^9]DB]	–	relative bioactivity among the didemnins synthesized (L1210; preliminary assay results): the most active of the didemnins synthesized thus far
L-glutaminyl-L-[alaninyl^9 ]didemnin B [Gln-[Ala^9]DB]	200 ng/mL	–
L-glutaminyl-L-alaninyl-didemnin A [Glutaminyl-AlaDA]	25 ng/mL	–
L-pyroglutamyl-L-[alaninyl^9 ] didemnin B [pGlu-[Ala^9]DB]	500 ng/mL	–
N-Benzyloxycarbonly-L-[Alaninyl^9 ]didemnin B [Cbz-[Ala^9]DB]	2 ng/mL	–
N-Benzyloxycarbonyl-L-alaninyl-didemnin A [Cbz-Alaninyl DA]	3 ng/mL	–
N-Benzyloxycarbonyl-L-glutaminyl-didemnin A [Cbz-Glutaminyl DA]	8 ng/mL	–
Pro-Didemnin A [Prolyl DA]	12 ng/mL	–
